Assay results published in US12493040B2, “Cancer detection method using sense of smell of nematode” (HIROTSU BIO SCIENCE INC., priority 2013, dated 2025).

Test system: RNAi-treated eri-1 (mg366) nematodes
Experiment: RNAi screening of olfactory receptor genes: chemotaxis assay of RNAi-treated nematodes to odorants
Assay type: in vivo, Caenorhabditis elegans
Details: repellent or high concentration of attractant
Outline: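 Chemotaxis of adult RNAi-fed eri-1 (mg366) nematodes (30–50 per test) was measured toward low (1 μl, 10^−3 or 10^−4 dilution) or high (1 and 5 μl neat) odorant doses. Knockdown: 4 days feeding on E. coli from Ahringer library with IPTG and ampicillin. Differences called by z score at ±1.96, weaker cutoff ±0.96.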

In the case of `CCCCCCCCO` [octanol], the chemotaxis index (Control nematodes) was −0.68 ± 0.018, the chemotaxis index (srh-4 RNAi-treated nematodes) was −0.17 and the chemotaxis index (srh-7 RNAi-treated nematodes) was −0.65. The chemotaxis index (srh-8 RNAi-treated nematodes) was −0.80, the chemotaxis index (srh-10 RNAi-treated nematodes) was −0.45 and the chemotaxis index (srh-11 RNAi-treated nematodes) was −0.19. It also gave a chemotaxis index (srh-15 RNAi-treated nematodes) of −0.85, a chemotaxis index (srh-16 RNAi-treated nematodes) of −0.89 and a chemotaxis index (srh-18 RNAi-treated nematodes) of −0.65. The chemotaxis index (srh-19 RNAi-treated nematodes) was −0.33, the chemotaxis index (srh-22 RNAi-treated nematodes) was −0.48 and the chemotaxis index (srh-23 RNAi-treated nematodes) was −0.90. It also gave a chemotaxis index (srh-24 RNAi-treated nematodes) of −0.56, a chemotaxis index (srh-25 RNAi-treated nematodes) of −0.90 and a chemotaxis index (srh-27 RNAi-treated nematodes) of −0.68. For the same molecule, the chemotaxis index (srh-28 RNAi-treated nematodes) was −0.73, the chemotaxis index (srh-36 RNAi-treated nematodes) was −0.72 and the chemotaxis index (srh-37 RNAi-treated nematodes) was −0.88. The chemotaxis index (srh-39 RNAi-treated nematodes) was −0.50, the chemotaxis index (srh-40 RNAi-treated nematodes) was −0.92 and the chemotaxis index (srh-41 RNAi-treated nematodes) was −0.80. The chemotaxis index (srh-44 RNAi-treated nematodes) was −0.52, the chemotaxis index (srh-45 RNAi-treated nematodes) was −0.87 and the chemotaxis index (srh-46 RNAi-treated nematodes) was −0.87. For the same molecule, the chemotaxis index (srh-48 RNAi-treated nematodes) was −0.83, the chemotaxis index (srh-49 RNAi-treated nematodes) was −0.57 and the chemotaxis index (srh-50 RNAi-treated nematodes) was −0.89. For the same molecule, the chemotaxis index (srh-51 RNAi-treated nematodes) was −0.89, the chemotaxis index (srh-52 RNAi-treated nematodes) was −0.79 and the chemotaxis index (srh-55 RNAi-treated nematodes) was −0.95. It also gave a chemotaxis index (srh-59 RNAi-treated nematodes) of −0.55, a chemotaxis index (srh-60 RNAi-treated nematodes) of −0.52 and a chemotaxis index (srh-61 RNAi-treated nematodes) of −0.77. For the same molecule, the chemotaxis index (srh-67 RNAi-treated nematodes) was −0.66, the chemotaxis index (srh-68 RNAi-treated nematodes) was −0.79 and the chemotaxis index (srh-69 RNAi-treated nematodes) was −0.61. It also gave a chemotaxis index (srh-70 RNAi-treated nematodes) of −0.80, a chemotaxis index (srh-71 RNAi-treated nematodes) of −0.60 and a chemotaxis index (srh-72 RNAi-treated nematodes) of −0.62. For the same molecule, the chemotaxis index (srh-74 RNAi-treated nematodes) was −0.89, the chemotaxis index (srh-75 RNAi-treated nematodes) was −0.59 and the chemotaxis index (srh-77 RNAi-treated nematodes) was −0.31. For the same molecule, the chemotaxis index (srh-79 RNAi-treated nematodes) was −0.17, the chemotaxis index (srh-80 RNAi-treated nematodes) was −0.39 and the chemotaxis index (srh-82 RNAi-treated nematodes) was −0.65. The chemotaxis index (srh-83 RNAi-treated nematodes) was −0.33, the chemotaxis index (srh-97 RNAi-treated nematodes) was −0.64 and the chemotaxis index (srh-99 RNAi-treated nematodes) was −0.61. The chemotaxis index (srh-100 RNAi-treated nematodes) was −0.46, the chemotaxis index (srh-104 RNAi-treated nematodes) was −0.36 and the chemotaxis index (srh-105 RNAi-treated nematodes) was −0.61. It also gave a chemotaxis index (srh-109 RNAi-treated nematodes) of −0.91, a chemotaxis index (srh-111 RNAi-treated nematodes) of −0.44 and a chemotaxis index (srh-113 RNAi-treated nematodes) of −0.43. For the same molecule, the chemotaxis index (srh-115 RNAi-treated nematodes) was −0.82, the chemotaxis index (srh-116 RNAi-treated nematodes) was −0.82 and the chemotaxis index (srh-118 RNAi-treated nematodes) was −0.37. It also gave a chemotaxis index (srh-119 RNAi-treated nematodes) of −0.35, a chemotaxis index (srh-120 RNAi-treated nematodes) of −0.37 and a chemotaxis index (srh-122 RNAi-treated nematodes) of −0.61. For the same molecule, the chemotaxis index (srh-123 RNAi-treated nematodes) was −0.32, the chemotaxis index (srh-125 RNAi-treated nematodes) was −0.56 and the chemotaxis index (srh-128 RNAi-treated nematodes) was −0.47. The chemotaxis index (srh-129 RNAi-treated nematodes) was −0.56, the chemotaxis index (srh-130 RNAi-treated nematodes) was −0.68 and the chemotaxis index (srh-131 RNAi-treated nematodes) was −0.49. It also gave a chemotaxis index (srh-132 RNAi-treated nematodes) of −0.19, a chemotaxis index (srh-139 RNAi-treated nematodes) of −0.73 and a chemotaxis index (srh-140 RNAi-treated nematodes) of −0.78. It also gave a chemotaxis index (srh-141 RNAi-treated nematodes) of −0.49, a chemotaxis index (srh-142 RNAi-treated nematodes) of −0.59 and a chemotaxis index (srh-145 RNAi-treated nematodes) of −0.64. The chemotaxis index (srh-148 RNAi-treated nematodes) was −0.67, the chemotaxis index (srh-154 RNAi-treated nematodes) was −0.65 and the chemotaxis index (srh-159 RNAi-treated nematodes) was −0.79. It also gave a chemotaxis index (srh-165 RNAi-treated nematodes) of −0.49, a chemotaxis index (srh-166 RNAi-treated nematodes) of −0.74 and a chemotaxis index (srh-167 RNAi-treated nematodes) of −0.28. The chemotaxis index (srh-169 RNAi-treated nematodes) was −0.62, the chemotaxis index (srh-174 RNAi-treated nematodes) was −0.45 and the chemotaxis index (srh-179 RNAi-treated nematodes) was −0.60. The chemotaxis index (srh-182 RNAi-treated nematodes) was −0.86, the chemotaxis index (srh-186 RNAi-treated nematodes) was −0.64 and the chemotaxis index (srh-190 RNAi-treated nematodes) was −0.64. It also gave a chemotaxis index (srh-193 RNAi-treated nematodes) of −0.92, a chemotaxis index (srh-195 RNAi-treated nematodes) of −0.47 and a chemotaxis index (srh-201 RNAi-treated nematodes) of −0.93. It also gave a chemotaxis index (srh-203 RNAi-treated nematodes) of −0.95, a chemotaxis index (srh-204 RNAi-treated nematodes) of −0.90 and a chemotaxis index (srh-206 RNAi-treated nematodes) of −0.94. It also gave a chemotaxis index (srh-207 RNAi-treated nematodes) of −0.81, a chemotaxis index (srh-208 RNAi-treated nematodes) of −0.60 and a chemotaxis index (srh-209 RNAi-treated nematodes) of −0.85. It also gave a chemotaxis index (srh-210 RNAi-treated nematodes) of −0.77, a chemotaxis index (srh-214 RNAi-treated nematodes) of −0.98 and a chemotaxis index (srh-216 RNAi-treated nematodes) of −0.68. The chemotaxis index (srh-217 RNAi-treated nematodes) was −0.82, the chemotaxis index (srh-220 RNAi-treated nematodes) was −0.47 and the chemotaxis index (srh-222 RNAi-treated nematodes) was −0.77. It also gave a chemotaxis index (srh-223 RNAi-treated nematodes) of −0.75.
